Experimental findings from patent US20230279020A9, “CARM1 INHIBITORS AND USES THEREOF” (Epizyme, Inc., priority 2013, published 2023) are described below.

Structures are written as SMILES.

Human CARM1 (PRMT4), sequence (Q86X55 other isoform, or with tags, fused parts or gaps isoform Q86X55-1): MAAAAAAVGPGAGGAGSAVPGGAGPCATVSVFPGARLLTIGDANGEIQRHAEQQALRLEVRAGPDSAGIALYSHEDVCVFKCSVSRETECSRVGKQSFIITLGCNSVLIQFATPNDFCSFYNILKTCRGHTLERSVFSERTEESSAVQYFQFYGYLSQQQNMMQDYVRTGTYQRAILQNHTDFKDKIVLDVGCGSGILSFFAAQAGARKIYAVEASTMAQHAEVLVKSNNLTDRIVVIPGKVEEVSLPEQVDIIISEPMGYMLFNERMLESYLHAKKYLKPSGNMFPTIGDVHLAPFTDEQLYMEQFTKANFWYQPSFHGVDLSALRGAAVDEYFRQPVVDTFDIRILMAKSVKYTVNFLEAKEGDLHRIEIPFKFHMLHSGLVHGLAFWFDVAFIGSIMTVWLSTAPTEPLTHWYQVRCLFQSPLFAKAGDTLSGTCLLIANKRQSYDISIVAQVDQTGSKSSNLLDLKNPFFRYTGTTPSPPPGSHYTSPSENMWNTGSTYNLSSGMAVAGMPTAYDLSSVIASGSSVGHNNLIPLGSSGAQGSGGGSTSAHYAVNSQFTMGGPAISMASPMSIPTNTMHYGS

The experiment has as its target Human CARM1 (PRMT4) (Homo sapiens (Human), UniProt Q86X55). Briefly: CARM1 enzyme assay on peptide substrate (3H-SAM Flashplate). The note with it: Biochemical potencies, classification codes; read-out: Biochem IC50.
For `CNCC(O)COc1cccc(-c2nc(N[C@@H]3CCOC3)c(C)c(N3CCC3)n2)c1` (stereo partly drawn) [Example 377-1a], the IC50 was less than 100 nM. In the case of `CNCC(O)COc1cccc(-c2nc(NC3CC(C(=O)OC)C3)cc(-c3c(C)noc3C)n2)c1` (stereo not drawn) [Example 45-1a] it was less than 100 nM; in that of `CNCC(O)COc1cccc(-c2nc(NC3CCN(C(=O)C4CC4)C3)c(C)c(-c3c(C)noc3C)n2)c1` (stereo not drawn) [Example 243-1a], less than 100 nM; in that of `CNCC(O)COc1cccc(-c2nc(N3CCNC(=O)C3)cc(N(C)C3CCOCC3)n2)c1` (stereo not drawn) [Example 575-1a], less than 100 nM. For the compound `CNCC(O)COc1cccc(-c2nc(-c3cn(C)c(C)n3)cc(N(C)C3CCOCC3)n2)c1` (stereo not drawn) [Example 529-1a], the half-maximal inhibitory concentration (IC50) was less than 100 nM. The value for `CNCC(O)COc1cccc(-c2nc(N[C@@H]3CCOC3)c(C)c(N3Cc4cccnc4C3)n2)c1` (stereo partly drawn) [Example 394-1a] was less than 100 nM; that for `CNCC(O)COc1cccc(-c2nc(NC3C[C@H]4CC[C@@H](C3)N4C(=O)OC)c(C)c(-c3c(C)noc3C)n2)c1` (stereo partly drawn) [Example 242-1a] was less than 100 nM; that for `CNCC(O)COc1cccc(-c2nc(C3CCNCC3)cc(N(C)C3CCOCC3)n2)c1` (stereo not drawn) [Example 615-1a] was less than 100 nM.

With `CNC[C@H](O)COc1ccc(F)c(-c2nc(NC3CCN(C(=O)OC)CC3)c(C)c(-c3c(C)noc3C)n2)c1` [Example 26-3], the concentration for half-maximal inhibition (IC50) was less than 100 nM. For the compound `CNCC(O)COc1cccc(-c2nc(NC3CCOCC3)cc(-c3ccc4c(c3)OCCO4)n2)c1` (stereo not drawn) [Example 657-1a], the IC50 is less than 100 nM.

On to `CNCC(O)COc1cccc(-c2nc(-c3cnc4c(C(=O)OC)cnn4c3)cc(N(C)C3CCOCC3)n2)c1` (stereo not drawn) [Example 482-1a], for which the IC50 is less than 100 nM.

Turning to `CNC[C@@H](O)COc1ccc(Cl)c(-c2nc(-c3c(C)noc3C)c(Cl)c(N3Cc4cccnc4C3)n2)c1` [Example 168-3], the concentration for half-maximal inhibition (IC50) was less than 100 nM. In the case of `CNCC(O)COc1cccc(-c2nc(NC3(C)CCOCC3)cc(-c3c(C)noc3C)n2)c1` (stereo not drawn) [Example 85-1a] it was less than 100 nM; in that of `CNCC(O)COc1cc(O)cc(-c2nc(NC3CCOCC3)c(C)c(-c3c(C)noc3C)n2)c1` (stereo not drawn) [Example 76-1a], less than 100 nM. As for `CNCC(O)COc1cccc(-c2nc(-c3cnn(CC(C)C)c3)cc(N(C)C3CCOCC3)n2)c1` (stereo not drawn) [Example 516-1a], the IC50 is less than 100 nM.

Turning to `CNCC(O)COc1cccc(-c2nc(-c3c(C)noc3C)c(C)c(N3CCN(C(=O)OCC(F)F)CC3)n2)c1` (stereo not drawn) [Example 161-1a], the IC50 is less than 100 nM.

In the case of `CNCC(O)COc1cccc(-c2nc(OCC3CCN(S(C)(=O)=O)CC3)c(C)c(-c3c(C)noc3C)n2)c1` (stereo not drawn) [Example 286-1a], the IC50 was less than 100 nM. On to `CNCC(O)COc1cccc(-c2nc(N[C@@H]3CCOC3)c(C)c(N3CC4CCC(C3)O4)n2)c1` (stereo partly drawn) [Example 412-1a], for which the IC50 was less than 100 nM. Turning to `CNCC(O)COc1cccc(-c2nc(C3=CCCC3)cc(N(C)C3CCOCC3)n2)c1` (stereo not drawn) [Example 621-1a], the half-inhibitory concentration (IC50) is less than 100 nM.

Regarding `CNC[C@@H](O)COc1ccc(Cl)c(-c2nc(N[C@@H]3CCN(C(=O)OC)[C@H](C)C3)c(C)c(-c3c(C)noc3C)n2)c1` [Example 135-3], the IC50 is less than 100 nM. The value for `CCO[C@@H]1CCC[C@@H]1Nc1nc(-c2cc(OC[C@H](O)CNC)ccc2Cl)nc(-c2c(C)noc2C)c1C` [Example 253-3] was less than 100 nM; that for `CNCC(O)COc1cccc(-c2nc(-c3c(C)noc3C)cc(N3C[C@H]4C[C@@H]3CN4S(C)(=O)=O)n2)c1` (stereo partly drawn) [Example 100-1a] was less than 100 nM; that for `CNC[C@@H](O)COc1ccc(Cl)c(-c2nc(-c3c(C)noc3C)c(C)c(N3Cc4cnc(C(C)C)nc4C3)n2)c1` [Example 264-3] was less than 100 nM. On to `CNCC(O)COc1cccc(-c2nc(-c3nc(C)c[nH]3)cc(N(C)C3CCOCC3)n2)c1` (stereo not drawn) [Example 521-1a], for which the IC50 was less than 100 nM.

Consider `CNCC(O)COc1cccc(-c2nc(-c3c(C)noc3C)cc(N3CCN(n4c(C)nnc4C)CC3)n2)c1` (stereo not drawn) [Example 165-1a], for which the IC50 was less than 100 nM. In the case of `CNCC(O)COc1cccc(-c2nc(N[C@@H]3CCOC3)c(C)c(N3CC[C@@H](c4cccnc4)C3)n2)c1` (stereo partly drawn) [Example 467-1a] it was less than 100 nM. Turning to `CNC[C@@H](O)COc1ccc(Cl)c(-c2nc(-c3c(C)noc3C)c(C)c(N3Cc4cnc(C(F)(F)F)nc4C3)n2)c1` [Example 263-3], the IC50 is less than 100 nM. Consider `CNCC(O)COc1cccc(-c2nc(NC3CCCN(C4COC4)C3)c(C)c(-c3c(C)noc3C)n2)c1` (stereo not drawn) [Example 246-1a], for which the IC50 is less than 100 nM. In the case of `CCS(=O)(=O)N1CCOC[C@@H]1CNc1nc(-c2cccc(OCC(O)CNC)c2)nc(-c2c(C)nsc2C)c1C` (stereo partly drawn) [Example 71-3], the IC50 was less than 100 nM. Turning to `CNCC(O)COc1cccc(-c2nc(NC3CCN(CC(F)F)CC3)c(C)c(-c3c(C)noc3C)n2)c1` (stereo not drawn) [Example 188-1a], the IC50 was less than 100 nM. For `CCS(=O)(=O)N1CC2(CCN(c3nc(-c4cccc(OCC(O)CNC)c4)nc(-c4c(C)noc4C)c3C)CC2)C1` (stereo not drawn) [Example 253-1a], the IC50 was less than 100 nM.

Take `CNCC(O)COc1cccc(-c2nc(-c3ccnc(C(=O)NC)c3)cc(N(C)C3CCOCC3)n2)c1` (stereo not drawn) [Example 510-1a]: the IC50 is less than 100 nM. As to `CNC[C@@H](O)COc1ccc(F)c(-c2nc(-c3c(C)noc3C)c(Cl)c(N3CC4(CCOCC4)C3)n2)c1` [Example 294-3], the concentration for half-maximal inhibition (IC50) was less than 100 nM. For `CNC[C@@H](O)COc1ccc(Cl)c(-c2nc(-c3c(C)noc3C)c(C)c(N3CCC4(C3)CN(C3CC3)C4)n2)c1` [Example 178-3], the concentration for half-maximal inhibition (IC50) was less than 100 nM. On to `CCOC(=O)N1CC[C@@H](Nc2nc(-c3cc(OC[C@H](O)CNC)ccc3Cl)nc(-c3c(C)noc3C)c2C)C1` [Example 112-3], for which the IC50 is less than 100 nM.

With `CCS(=O)(=O)N1CC2(CCCN(c3nc(-c4cccc(OCC(O)CNC)c4)nc(-c4c(C)noc4C)c3C)C2)C1` (stereo not drawn) [Example 296-1a], the concentration for half-maximal inhibition (IC50) is less than 100 nM.

In the case of `CNCC(O)COc1cccc(-c2nc(NCC3CCOCC3)c(Cl)c(-c3c(C)noc3C)n2)c1` (stereo not drawn) [Example 142-1a], the IC50 is less than 100 nM. In the case of `CNCC(O)COc1cccc(-c2nc(-c3c(C)noc3C)cc(N3CCNC(C)C3)n2)c1` (stereo not drawn) [Example 35-1a] it was less than 100 nM; in that of `CNCC(O)COc1cccc(-c2nc(C3CC3)cc(N(C)C3CCOCC3)n2)c1` (stereo not drawn) [Example 10-1], less than 100 nM. With `CNCC(O)COc1cccc(-c2nc(-c3c(C)noc3C)cc(N3CCN[C@@H](C)C3)n2)c1` (stereo partly drawn) [Example 40-1a], the 50% inhibitory concentration (IC50) was less than 100 nM.

Regarding `CNCC(O)COc1cc(Cl)cc(-c2nc(-c3ccnc(N(C)C)c3)cc(N(C)C3CCOCC3)n2)c1` (stereo not drawn) [Example 609-1a], the concentration for half-maximal inhibition (IC50) was less than 100 nM. The value for `CNCC(O)COc1cccc(-c2nc(-c3c(C)noc3C)c(C)c(N3CCO[C@@H](CN(C)S(C)(=O)=O)C3)n2)c1` (stereo partly drawn) [Example 150-1a] was less than 100 nM; that for `CNCC(O)COc1cccc(-c2nc(-c3c(C)noc3C)c(C)c(N3C[C@H]4CC[C@@H](C3)N4C)n2)c1` (stereo partly drawn) [Example 116-1a] was less than 100 nM; that for `CNC[C@@H](O)COc1ccc(Cl)c(-c2nc(-c3c(C)noc3C)c(C)c(N3Cc4cc(OC)cnc4C3)n2)c1` [Example 232-3] was less than 100 nM.

On to `CNCC(O)COc1cccc(-c2nc(-c3ccncc3)cc(N(C)C3CCOCC3)n2)c1` (stereo not drawn) [Example 1-1], for which the 50% inhibitory concentration (IC50) is less than 100 nM. With `CCOC(=O)N1CCOC[C@@H]1CNc1nc(-c2cccc(OCC(O)CNC)c2)nc(-c2c(C)noc2C)c1C` (stereo partly drawn) [Example 206-1a], the 50% inhibitory concentration (IC50) is less than 100 nM. With `CNC[C@@H](O)COc1ccc(Cl)c(-c2nc(-c3c(C)noc3C)c(C)c(N(C)C3CC(COC)C3)n2)c1` (stereo partly drawn) [Example 220-3], the concentration for half-maximal inhibition (IC50) was less than 100 nM. For the compound `CNC[C@@H](O)COc1ccc(Cl)c(-c2nc(-c3c(C)noc3C)c(Cl)c(N3Cc4ccncc4C3)n2)c1` [Example 214-3], the IC50 is less than 100 nM.

Regarding `CCc1nc(-c2cccc(OCC(O)CNC)c2)cc(N(C)C2CCOCC2)n1` (stereo not drawn) [Example 2-2], the half-inhibitory concentration (IC50) is less than 100 nM.

For the compound `CNCC(O)COc1cccc(-c2nc(NCC3(C)CCOCC3)c(C)c(-c3c(C)noc3C)n2)c1` (stereo not drawn) [Example 115-1a], the IC50 was less than 100 nM. The value for `CNC[C@@H](O)COc1ccc(F)c(-c2nc(-c3c(C)noc3C)c(C)c(N3CC4(CCOCC4)C3)n2)c1` [Example 227-3] was less than 100 nM; that for `CNCC(O)COc1cc(Cl)cc(-c2nc(-c3cnn(C)c3)cc(N(C)C3CCOCC3)n2)c1` (stereo not drawn) [Example 610-1a] was less than 100 nM. Consider `CNCC(O)COc1cccc(-c2nc(-c3cncn3C)cc(N(C)C3CCOCC3)n2)c1` (stereo not drawn) [Example 580-1a], for which the concentration for half-maximal inhibition (IC50) is less than 100 nM.

`CNCC(O)COc1cccc(-c2nc(-c3c(C)noc3C)cc(N3CCN(CCOC)CC3)n2)c1` (stereo not drawn) [Example 139-1a]: the IC50 is less than 100 nM.

Take `CNC[C@@H](O)COc1ccc(Cl)c(-c2nc(-c3c(C)noc3C)c(C)c(N3Cc4ccncc4C3)n2)c1` [Example 159-3]: the IC50 was less than 100 nM. In the case of `CNCC(O)COc1cccc(-c2nc(Nc3cncnc3)cc(-c3c(C)noc3C)n2)c1` (stereo not drawn) [Example 21-1a] it was less than 100 nM; in that of `CNCC(O)COc1cccc(-c2nc(NC3CCOC3)c(C)c(C(=O)NC3CCN(C)CC3)n2)c1` (stereo not drawn) [Example 397-1a], less than 100 nM; in that of `CNCC(O)COc1cccc(-c2nc(-c3ccnc(C#N)c3)cc(N(C)C3CCOCC3)n2)c1` (stereo not drawn) [Example 498-1a], less than 100 nM. For `CNCC(O)COc1cccc(-c2nc(N[C@@H]3CCOC3)c(C)c(-c3cncnc3)n2)c1` (stereo partly drawn) [Example 350-1a], the IC50 is less than 100 nM. For the compound `CNCC(O)COc1cccc(-c2nc(N[C@@H]3CCOC3)c(C)c(N3CCN(CC(F)F)[C@H](C)C3)n2)c1` (stereo partly drawn) [Example 471-1a], the concentration for half-maximal inhibition (IC50) was less than 100 nM. `CNCC(O)COc1cccc(-c2nc(-c3ccncc3)c(C)c(N(C)[C@@H]3CCOC3)n2)c1` (stereo partly drawn) [Example 339-1a]: the IC50 was less than 100 nM. The value for `CNCC(O)COc1cccc(-c2nc(OCC3CCN(CC(F)F)CC3)c(C)c(-c3c(C)noc3C)n2)c1` (stereo not drawn) [Example 288-1a] was less than 100 nM.

Take `CNC[C@@H](O)COc1ccc(Cl)c(-c2nc(N[C@@H]3C[C@@H](C)O[C@@H](C)C3)c(C)c(-c3c(C)noc3C)n2)c1` [Example 182-3]: the IC50 is less than 100 nM.
